From EP0661044A1 (priority 1991, dated 1993)

Assay: Entrapment of daunorubicin in distearoyl phosphatidylcholine-cholesterol vesicles using ethylenediamine citrate (ion-exchange loading)
Assay type: physicochemical
Conditions: lipid:drug ratio approximately at least 16:1 (mol/mol as printed); 65°C for about 10 minutes; typical value
Protocol: A dry powder containing a homogenous dispersion of cholesterol and distearoylphosphatidylcholine at a 1:2 molar ratio was prepared by evaporation from a 1:1 chloroform/methanol solution. […] The lipid concentration in the resulting suspension was about 20 to 25 mg/ml. This mixture was then heated to 65°C. Next, while maintaining that temperature, the mixture was homogenized using a sonicator to produce a suspension of small unilamellar vesicles. The vesicles thus obtained had diameters principally in the range of about 40 to 80 nm with little or no particles in excess of 100 nm.
Following homogenization, the mixture underwent a buffer exchange to remove the external, unentrapped, ethylenediamine citrate. This was accomplished by subjecting the mixture to tangential flow ultrafiltration. This process removes water and small molecular weight solutes while retaining lipid vesicles and their contents. Using this process, the lactose/ethylenediamine citrate buffer external to the vesicles was replaced with 250 mM lactose/50 mM glycine. The vesicle preparation was heated to about 65°C and an amount of daunorubicin (base or suitable salt form) was added to yield a lipid to drug ratio in the range of about 16:1 to 19:1 or more (w/w), but preferably 17.4:1. […]

With COc1cccc2c1C(=O)c1c(O)c3c(c(O)c1C2=O)C[C@@](O)(C(C)=O)C[C@@H]3O[C@H]1C[C@H](N)[C@H](O)[C@H](C)O1 [daunorubicin] the “added daunorubicin vesicle entrapped as daunorubicin-citrate” value was “greater than 90%”.
